Patent US20220401564A1 (DANA-FARBER CANCER INSTITUTE, INC., priority 2019, published 2022)

What was measured:
Type in all cases: biochemical
HDAC2 = biological target: T1, HDAC2 (Homo sapiens, UniProt Q92769); experiment: HDAC enzymatic assay (Reaction Biology), fluorogenic substrate
T1 construct: purchased Reaction Biology
Method: (§1) Compounds 2 and 9 were tested in an enzymatic assay from Reaction Biology® against HDAC isoforms.
(§2) Base Reaction buffer: 50 mM Tris-HCl, pH8.0, 137 mM NaCl, 2.7 mM KCl, and 1 mM MgCl2. Add fresh: 1 mg/ml BSA, 1% DMSO
(§3) Fluorogenic HDAC General Substrate (HDAC1, HDAC2, HDAC3, HDAC6, HDAC10, and HDAC11): 50 μM, Arg-His-Lys-Lys(Ac)-AMC
(§4) 1. Delivered 2X enzyme in wells of reaction plate except in the control wells and added buffer to control wells. 2. Delivered compounds in 100% DMSO into the enzyme mixture by Acoustic technology (Echo550; nanoliter range). Spin down and pre-incubation. 3. Delivered 2X Substrate Mixture (Fluorogenic HDAC Substrate and co-factor if applicable) in all reaction wells to initiate the reaction. Spin and shake. 4. Incubated for 30 min for Class 2A, 1 h for HDAC1, 2, 3, and 6, and 2 h for the rest of HDAC isoforms and SIRTs at 30° C. with seal.
(§5) 5. Added Developer with Trichostatin A (or Nicotinamide for SIRTs) to stop the reaction and to generate fluorescent color. 6. The fluorescence that was generated was detected with excitation (Ex) at […] and emission (Em) at 460 nM by the EnVision Multilabel Plate Reader (PerkinElmer®, Santa Clara, Calif., USA).
(§6) IC50 values were derived from a 10-dose response curve. As shown in Tables 1-2, the addition of a linker and CRBN targeting group altered the isoform selectivity of the SAHA-based degrader compounds.

HDAC1 = biological target: T2, HDAC1 (Homo sapiens, UniProt Q13547); experiment: as above
T2 construct: purchased Reaction Biology
Method: as §1, §2, §3, §4, §5, §6

HDAC8 = biological target: T3, HDAC8 (Homo sapiens, UniProt Q9BY41); experiment: HDAC enzymatic assay (Reaction Biology), HDAC8 substrate; set-up: purchased Reaction Biology
T3 sequence (Q9BY41 1-377): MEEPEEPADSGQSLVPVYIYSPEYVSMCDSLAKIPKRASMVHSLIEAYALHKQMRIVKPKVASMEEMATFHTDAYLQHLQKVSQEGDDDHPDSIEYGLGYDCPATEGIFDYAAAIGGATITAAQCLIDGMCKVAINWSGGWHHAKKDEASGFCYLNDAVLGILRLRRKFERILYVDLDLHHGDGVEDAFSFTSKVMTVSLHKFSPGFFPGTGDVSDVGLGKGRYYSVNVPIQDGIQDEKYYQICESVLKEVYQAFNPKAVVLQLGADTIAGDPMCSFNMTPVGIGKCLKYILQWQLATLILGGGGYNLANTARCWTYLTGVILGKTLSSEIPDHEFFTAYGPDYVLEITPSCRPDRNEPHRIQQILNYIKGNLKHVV
Method: as §1, §2
(HDAC8 only substrate: 50 μM, Arg-His-Lys(Ac)-Lys(Ac))-AMC
as §4, §5, §6

HDAC6 = biological target: T4, HDAC6 (Homo sapiens, UniProt Q9UBN7); experiment: HDAC enzymatic assay (Reaction Biology), fluorogenic substrate; set-up: purchased Reaction Biology
T4 sequence (Q9UBN7 1-1215): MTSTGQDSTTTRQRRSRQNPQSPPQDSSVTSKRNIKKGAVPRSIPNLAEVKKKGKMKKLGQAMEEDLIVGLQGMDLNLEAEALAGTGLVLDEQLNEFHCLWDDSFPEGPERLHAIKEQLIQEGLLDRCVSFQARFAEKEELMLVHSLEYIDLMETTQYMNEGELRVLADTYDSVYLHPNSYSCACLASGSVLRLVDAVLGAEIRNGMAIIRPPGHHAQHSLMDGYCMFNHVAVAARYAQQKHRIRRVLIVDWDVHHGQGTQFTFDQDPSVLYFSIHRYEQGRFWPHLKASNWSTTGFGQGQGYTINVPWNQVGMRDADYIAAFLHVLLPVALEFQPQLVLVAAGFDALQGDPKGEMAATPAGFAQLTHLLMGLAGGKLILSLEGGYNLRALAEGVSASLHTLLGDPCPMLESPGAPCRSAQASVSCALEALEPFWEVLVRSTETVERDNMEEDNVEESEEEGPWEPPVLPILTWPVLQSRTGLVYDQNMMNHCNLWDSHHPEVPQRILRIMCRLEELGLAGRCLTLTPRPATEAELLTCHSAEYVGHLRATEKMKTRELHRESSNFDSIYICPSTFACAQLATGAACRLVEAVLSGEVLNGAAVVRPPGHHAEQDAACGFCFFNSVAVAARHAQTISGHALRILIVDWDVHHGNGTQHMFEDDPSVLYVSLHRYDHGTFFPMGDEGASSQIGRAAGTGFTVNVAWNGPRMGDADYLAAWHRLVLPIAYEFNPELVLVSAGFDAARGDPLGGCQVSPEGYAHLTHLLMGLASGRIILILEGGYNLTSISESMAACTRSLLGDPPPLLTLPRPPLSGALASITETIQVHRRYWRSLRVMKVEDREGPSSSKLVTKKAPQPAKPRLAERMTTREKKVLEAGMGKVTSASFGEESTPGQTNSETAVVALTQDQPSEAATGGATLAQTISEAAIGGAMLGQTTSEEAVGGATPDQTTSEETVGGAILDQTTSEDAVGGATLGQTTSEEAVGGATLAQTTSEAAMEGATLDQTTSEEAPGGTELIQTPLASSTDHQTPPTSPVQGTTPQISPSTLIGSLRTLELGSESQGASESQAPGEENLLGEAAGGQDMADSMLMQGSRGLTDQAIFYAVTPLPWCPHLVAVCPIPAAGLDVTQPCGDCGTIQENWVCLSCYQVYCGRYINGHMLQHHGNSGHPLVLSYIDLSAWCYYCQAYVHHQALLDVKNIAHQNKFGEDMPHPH
Method: as §1, §2, §3, §4, §5, §6

HDAC3 = HDAC3 (Homo sapiens, UniProt O15379); experiment: as above; set-up: purchased Reaction Biology
Method: as §1, §2, §3, §4, §5, §6

T1 sequence (Q92769 whole entry): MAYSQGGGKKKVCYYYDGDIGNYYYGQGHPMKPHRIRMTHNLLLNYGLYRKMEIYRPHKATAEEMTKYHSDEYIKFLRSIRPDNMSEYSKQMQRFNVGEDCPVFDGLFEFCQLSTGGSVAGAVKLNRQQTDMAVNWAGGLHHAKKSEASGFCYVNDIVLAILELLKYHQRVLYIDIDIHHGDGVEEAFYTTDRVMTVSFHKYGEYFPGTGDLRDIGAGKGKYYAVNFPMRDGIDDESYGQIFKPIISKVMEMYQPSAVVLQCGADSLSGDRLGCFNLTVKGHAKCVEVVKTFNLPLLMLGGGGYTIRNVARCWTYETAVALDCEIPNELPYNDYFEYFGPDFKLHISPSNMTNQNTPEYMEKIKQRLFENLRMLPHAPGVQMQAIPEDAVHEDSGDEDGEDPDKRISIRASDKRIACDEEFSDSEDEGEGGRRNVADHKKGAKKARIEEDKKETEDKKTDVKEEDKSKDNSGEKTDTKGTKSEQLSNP
T2 sequence (Q13547 whole entry): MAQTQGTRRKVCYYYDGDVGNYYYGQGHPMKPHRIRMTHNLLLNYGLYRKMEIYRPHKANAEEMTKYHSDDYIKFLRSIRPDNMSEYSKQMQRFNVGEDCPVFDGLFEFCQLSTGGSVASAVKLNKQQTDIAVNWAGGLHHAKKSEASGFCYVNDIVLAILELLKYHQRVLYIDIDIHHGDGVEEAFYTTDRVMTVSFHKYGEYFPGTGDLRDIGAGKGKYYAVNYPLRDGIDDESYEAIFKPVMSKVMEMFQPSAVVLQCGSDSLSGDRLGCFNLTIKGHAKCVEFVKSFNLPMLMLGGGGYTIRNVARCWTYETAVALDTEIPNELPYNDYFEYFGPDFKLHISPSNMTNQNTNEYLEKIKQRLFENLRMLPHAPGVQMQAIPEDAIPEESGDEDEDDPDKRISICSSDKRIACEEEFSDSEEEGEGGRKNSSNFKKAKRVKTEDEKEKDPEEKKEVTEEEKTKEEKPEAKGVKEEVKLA
Sequence of HDAC3 (O15379 whole entry): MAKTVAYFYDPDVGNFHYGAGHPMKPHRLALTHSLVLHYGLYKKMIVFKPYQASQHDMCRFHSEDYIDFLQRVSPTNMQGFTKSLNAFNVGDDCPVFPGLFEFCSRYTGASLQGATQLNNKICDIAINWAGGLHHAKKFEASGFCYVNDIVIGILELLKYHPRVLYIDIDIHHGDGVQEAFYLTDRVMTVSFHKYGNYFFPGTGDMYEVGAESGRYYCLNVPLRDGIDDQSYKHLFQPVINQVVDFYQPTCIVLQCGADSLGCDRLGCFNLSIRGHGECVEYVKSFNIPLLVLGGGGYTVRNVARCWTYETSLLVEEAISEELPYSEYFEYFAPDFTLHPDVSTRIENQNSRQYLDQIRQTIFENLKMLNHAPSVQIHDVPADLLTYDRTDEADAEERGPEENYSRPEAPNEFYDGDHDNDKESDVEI
Sequence of HDAC3 (Q9Y618 395-489 partner limits assumed): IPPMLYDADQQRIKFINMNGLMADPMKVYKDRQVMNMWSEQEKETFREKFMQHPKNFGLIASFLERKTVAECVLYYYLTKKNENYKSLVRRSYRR

inhibition of HDAC2 deacetylase activity in vitro (in words) (HDAC2): Moderate inhibition
IC50 (HDAC2; 10-dose response curve, read-out: Compound IC50 (M), HDAC2): 1.03e-06 M
inhibition of HDAC1 deacetylase activity in vitro (in words) (HDAC1): Moderate inhibition
IC50 (HDAC1; 10-dose response curve, read-out: Compound IC50 (M), HDAC1): 4.81e-07 M
inhibition of HDAC8 deacetylase activity in vitro (in words) (HDAC8): Moderate inhibition
IC50 (HDAC8; 10-dose response curve, read-out: Compound IC50 (M), HDAC8): 1.16e-06 M
inhibition of HDAC6 activity in vitro (in words) (HDAC6): potently inhibited
IC50 (HDAC6; 10-dose response curve, read-out: Compound IC50 (M), HDAC6): 7.85e-08 M
inhibition of HDAC3 deacetylase activity in vitro (in words) (HDAC3): Moderate inhibition
IC50 (HDAC3; 10-dose response curve, read-out: Compound IC50 (M), HDAC3): 5.77e-07 M
SMILES: Cc1ncsc1-c1ccc([C@H](C)NC(=O)[C@@H]2C[C@@H](O)CN2C(=O)[C@@H](NC(=O)CCOCCOCCN(CCc2c[nH]c3ccccc23)Cc2ccc(/C=C/C(=O)NO)cc2)C(C)(C)C)cc1 [Compound 2, (2S,4R)-1-((S)-14-(tert-butyl)-3-(4-((E)-3-(hydroxyamino)-3-oxoprop-1-en-1-yl)benzyl)-1-(1H-indol-3-yl)-12-oxo-6,9-dioxa-3,13-diazapentadecan-15-oyl)-4-hydroxy-N—((S)-1-(4-(4-methylthiazol-5-yl)phenyl)ethyl)pyrrolidine-2-carboxamide]
